Data as given in publication PMC3664642, “A Peptide against Soluble Guanylyl Cyclase α1: A New Approach to Treating Prostate Cancer” (PLoS ONE, 2013).
“Also recorded” adds a separate entry of the source.

What was measured:
[1] = tested on: LNCaP cells; test: Dependence of cytotoxicity on NO signaling, LNCaP cells (MTT); type: cell-based; settings: for effect of C-PTIO on cytotoxicity of Peptide A-8R: Fig. S1D
Experimental: (§1) For proliferation, cells were grown in medium containing 2% FBS extracted with dextran-coated charcoal (DCC). 48 hours later, ethanol or 1 nM R1881 was added to the cells followed by peptide treatment. The MTT assay (Sigma) was used as before to determine cell number. For apoptosis, 5000 cells were seeded in 96-well plates and treated with Vehicle (DMSO), Peptide A-8R (25 µM), Etoposide (50 µM) (Sigma) at different time points. The Caspase (3/7) activity was measured using Apo-ONE Homogeneous Caspase-3/7 assay kit (Promega). PARP cleavage was also used to measure apoptosis, and is described below.
(§2) (A) Whole-cell extracts from LNCaP cells treated with Vehicle, Peptide A-8R, or C-8R were subjected to IP using an anti-sGCα1 or anti-sGCβ1 antibody and then probed by Western blotting for sGCα1 (Upper) or sGCβ1 (Lower). Input represents amount of sGCα1 or sGCβ1 found in extracts. (B) LNCaP cells grown in the absence or presence of 1 nM R1881 were treated with Vehicle, 20 µM Peptide A-8R, 20 µM C-8R, or 8-Br-cGMP and monitored for cGMP levels using the cGMP E1A kit (Enzo Life Sciences). (C) LNCaP cells grown in the absence or presence of 8-Br-cGMP were treated with Vehicle, Peptide A-8R, or ODQ and monitored for cell density using the MTT assay. (D) LNCaP cells were treated with Vehicle or different concentrations of Peptide A-8R and C-PTIO and monitored for cell density. Bar graphs represent averages of three independent experiments plus standard deviations. Asterisks indicate statistical significance (P<0.04). (TIF) Click here for additional data file.

[2] = tested on: sGC; test: cGMP levels in LNCaP cells (ELISA); type: cell-based; settings: 1 nM R1881 absent or present, 20 µM peptide, cGMP EIA kit, Fig. S1B
Experimental: as §2

[3] = tested on: tumor cell; settings: ref [16], [17]; cited from earlier work
From the text: In view of the rapid cytotoxicity induced by Peptide A (data not shown), we examined the possibility that ROS was involved.

[4] = tested on: LNCaP cells; test: Proliferation/cytotoxicity, LNCaP cells (MTT); type: cell-based; settings: PI3K-AKT inhibitor; MTT; Fig. S3A; averages of three independent experiments
Experimental: LNCaP, C81, PC-3 and Cos cells were grown as previously described. CWR-22Rv1 cells were cultured in RMPI-1640 medium with 10% FBS and 50 µg/ml Gentamicin (Gibco). Control siRNA, sGCα1 siRNA and AKT siRNA (Dharmacon) at 50 nM final concentration was transfected into cells using Lipofectamine siMAX (Invitrogen).
as §1
(A) Four peptides were designed targeting sGCα1, with each peptide containing eight arginines at the C-terminus for membrane translocation. (B) LNCaP cells were grown in 10% serum under different concentrations of the four peptides, as shown. Cell number was measured after 0–4 days of incubation. Data points represent averages of three independent experiments plus standard deviations. Asterisks indicate statistical significance (P<0.0002) of Peptide A activity, relative to Vehicle.
Figure 2 Peptide A-8R interacts with sGCα1 in prostate cancer cells. (A) LNCaP cells were treated with 25 µM Biotin-labeled Peptide A-8R for 2 hrs and subjected to immunocytochemistry using anti-sGCα1 or anti-Biotin antibody to measure subcellular co-localization of endogenous sGCα1 and Peptide A-8R. DAPI was used to stain nuclei. (B) LNCaP cytosolic extracts were incubated with Peptide A-8R-Biotin and subjected to purification using streptavidin-agarose. This pull-down experiment was repeated with competing excess amount of unlabeled Peptide C-8R or Peptide A-8R. […] Co-purified Peptide A-8R-FITC was quantified by measuring fluorescence signal emission. […] Cell number was measured after 0–48 hrs of incubation. […]

[5] = tested on: C81 cells; test: NAC rescue of proliferation of Peptide A-8R-treated cells (MTT); type: cell-based; settings: for NAC rescue of proliferation: C81, NAC 1 or 5 mM, 2 h pretreatment, 0–6 days
Experimental: as §1
Intracellular ROS levels were evaluated using the fluorescent probe 5-(and-6)-chloromethyl-2′,7′-dichlorodihydrofluorescein diacetate (CM-H2DCFDA) (Invitrogen). After treatments with Peptide A-8R, C81 cells were loaded with 20 µM CM-H2DCFDA and incubated at 37°C for 30 min in the dark. Cells were then washed with PBS and fluorescence was measured at the excitation and emission wavelengths of 490 and 535 nm, respectively, using a multi-well fluorescence plate reader. For NAC (N-acetyl cysteine) (Sigma) rescue experiment, cells were pretreated with 1 or 5 mM NAC for 2 hours before adding Peptide A-8R.
(§3) Figure 4 Peptide A-8R kills prostate cancer cells by mediating ROS generation. (A) C81 cells were treated with Vehicle or different µMolar concentrations of Peptide A-8R and without or with 0–5 mM NAC and monitored for ROS generation after 0–30 min as measured by fluorescence intensity (FI). Bar graphs represent averages of three independent experiments plus standard deviations. Note that asterisks on bar graphs found with NAC are compared to equivalent data without NAC. (B) C81 cells were treated with Vehicle or different concentrations of Peptide A-8R, as shown, and 0–5 mM NAC, as shown, and monitored for cell number after 0–6 days of incubation as measured by MTT assay. Data points represent averages of three independent experiments plus standard deviations. Asterisks indicate statistical significance (P<0.04). (C) C81 cells were treated with Vehicle or different concentrations of Peptide A-8R, as shown, and with or without 5 mM NAC, as shown, and monitored DNA damage after 1 hr incubation as measured by Comet assay.

[6] = tested on: C81 cells; test: DAPI DNA staining, C81 cells; type: cell-based; settings: 5 mM NAC, 2 hrs, Fig. S6
Experimental: C81 cells were first treated with or without 5 mM NAC for 2 hrs and then Vehicle or different concentrations of Peptide A-8R, as shown, for 1 hr and stained with DAPI. Phase contrast images are shown. (TIF) Click here for additional data file.

[7] = tested on: DNA damage in C81 cells; test: Comet assay (DNA damage); type: cell-based; settings: 5 mM NAC, 2-hour pretreatment; Fig. 4C
Experimental: C81 cells were treated with Peptide A-8R for 1 hour, following a 2-hour pretreatment with 5 mM NAC or Vehicle, and trypsinized, and mixed with Comet LM-Agarose (CometAssay, […]) and transferred to slides. Electrophoresis and Sybr-Green staining was carried out according to manufacturer’s protocol.
as §3

[8] = tested on: Caspase 3/7 activity in LNCaP cells; test: Caspase 3/7 assay, LNCaP cells; type: cell-based; settings: Peptide 10 µM, Etoposide 20 µM, 24 hrs, Fig. 5A
Experimental: as §1
Figure 5 Peptide A-8R induces apoptosis of prostate cancer cells. (A) LNCaP, (B) PC-3, or (C) Cos cells were treated with Vehicle, Peptide A-8R (10 µM), or Etoposide (20 µM) for 0–24 hrs and subjected to a Caspase assay to measure apoptosis. Bar graphs represent averages of three independent experiments plus standard deviations. All activities are relative to the first condition, and this activity was set to 1. Asterisks indicate statistical significance (P<0.005). (D) LNCaP cells were treated with Vehicle, Peptide C-8R, Peptide A-8R, or Etoposide (each drug at 50 µM) for 8 hrs and monitored for apoptosis by measuring PARP cleavage using Western blotting. Note that β-actin was used to control for protein loading.
Supplementary file pone.0064189.s005.tif: Figure S5 ROS generation is not induced by Peptide A-8R in PC-3 cells and Peptide C-8R in LNCaP cells. (A) PC-3 cells were treated with Vehicle or different concentrations of Peptide A-8R or Peptide C-8R, as shown, or (B) LNCaP cells were treated with Vehicle or different concentrations of Peptide A-8R or Peptide C-8R, or H2O2 and monitored for ROS generation after 0–30 (A) or 30 (B) min. (C) LNCaP cells were treated with Vehicle, Peptide C-8R (10 µM), Peptide A-8R (10 µM), or Etoposide (100 µM) for 0–8 hrs and subjected to a Caspase assay to measure apoptosis. Bar graphs represent averages of three independent experiments plus standard deviations. (C) All activities are relative to the first condition, and this activity was set to either 1. Asterisks indicate statistical significance (P<0.006) of all values compared to Vehicle (B) or to 0 hour (C). (TIF) Click here for additional data file.

Compound: CC1(C)N([O])C(c2ccc(C(=O)O)cc2)=[N+]([O-])C1(C)C [C-PTIO]
- effect of C-PTIO on cytotoxicity of Peptide A-8R ([1]; Peptide A-8R at 50 µM): interestingly not 50 µM
- effect of C-PTIO on cytotoxicity of Peptide A-8R ([1]; Peptide A-8R at 10 and 25 µM, P<0.04): enhanced rather than relieved the cytotoxicity of Peptide A-8R at 10 and 25 µM

Compound: C[C@]1(O)CC[C@H]2[C@@H]3CCC4=CC(=O)CCC4=C3C=C[C@@]21C [Peptide R1881, reference compound]
- cGMP levels [2]: markedly elevated cGMP levels

Compound: COc1cccc2c1C(=O)c1c(O)c3c(c(O)c1C2=O)C[C@@](O)(C(=O)CO)C[C@@H]3O[C@H]1C[C@H](N)[C@H](O)[C@H](C)O1 [doxorubicin]
- tumor cell death by elevating ROS [3]: induce tumor cell death by elevating levels of reactive oxygen species

Compound: N.N.[Cl][Pt][Cl] [cisplatin]
- tumor cell death by elevating ROS [3]: induce tumor cell death by elevating levels of reactive oxygen species

Compound: Nc1nc2c(nc(Br)n2[C@@H]2O[C@@H]3COP(=O)(O)O[C@H]3[C@H]2O)c(=O)[nH]1 [Peptide 8-Br-cGMP]
- effect of added agent on Vehicle- or Peptide A-8R-treated cells (cell density) ([1]; MTT, Fig. S1C): had no effect on Vehicle- or Peptide A-8R-treated cells
- rescue of ODQ-treated cells (cell density) ([1]; MTT, ODQ-treated, Fig. S1C): able to partially rescue cells treated with the sGC enzyme inhibitor ODQ

Compound: O=c1cc(N2CCOCC2)oc2c(-c3ccccc3)cccc12 [LY294002, reference compound]
- LNCaP cell proliferation [4]: dramatically repressed LNCaP cell proliferation

Compound: CC(=O)N[C@@H](CS)C(=O)O [NAC, N-acetyl cysteine]
- NAC rescue of proliferation ([5]; 10 µM Peptide A-8R, Fig. 4B (P<0.04)): able to completely rescue the proliferation
- NAC rescue of proliferation ([5]; 25 µM Peptide A-8R, Fig. 4B (P<0.04)): nearly completely
- NAC rescue of proliferation ([5]; 50 µM Peptide A-8R, Fig. 4B): failed to significantly rescue the growth; also recorded: only marginally rescued
- NAC rescue (discussion) ([5]; 10 and 25 µM Peptide A-8R): strong rescue
- effect of NAC on cells treated with 50 µM Peptide A-8R (DAPI) [6]: had no effect
- inhibition of Peptide A-8R-induced DNA damage [7]: completely blocked

Compound: COc1cc([C@@H]2c3cc4c(cc3[C@@H](O[C@@H]3O[C@@H]5CO[C@@H](C)O[C@H]5[C@H](O)[C@H]3O)[C@H]3COC(=O)[C@H]23)OCO4)cc(OC)c1O [Etoposide, reference compound]
- Caspase 3/7 activity [8]: induced similar levels of Caspase activity as did Peptide A-8R, but only after 24 hrs of treatment
